Experimental data from article PMC7478253, “Design, synthesis, and SAR study of isopropoxy allylbenzene derivatives as 15-lipoxygenase inhibitors” (Iranian Journal of Basic Medical Sciences, 2020).
“Also recorded” adds a separate entry of the source. Read-outs that look alike come from different tables or passages of the source.

Key:
[1] = target: T1, soybean 15-lipoxygenase (SLO; L1; Type I-B; EC 1,13,11,12) (Glycine max, UniProt P08170); test: SLO enzyme inhibition, peroxide-formation method (substrate linoleic acid); assay type: biochemical
T1 construct: purchased Sigma Co
T1 sequence (P08170 1-839): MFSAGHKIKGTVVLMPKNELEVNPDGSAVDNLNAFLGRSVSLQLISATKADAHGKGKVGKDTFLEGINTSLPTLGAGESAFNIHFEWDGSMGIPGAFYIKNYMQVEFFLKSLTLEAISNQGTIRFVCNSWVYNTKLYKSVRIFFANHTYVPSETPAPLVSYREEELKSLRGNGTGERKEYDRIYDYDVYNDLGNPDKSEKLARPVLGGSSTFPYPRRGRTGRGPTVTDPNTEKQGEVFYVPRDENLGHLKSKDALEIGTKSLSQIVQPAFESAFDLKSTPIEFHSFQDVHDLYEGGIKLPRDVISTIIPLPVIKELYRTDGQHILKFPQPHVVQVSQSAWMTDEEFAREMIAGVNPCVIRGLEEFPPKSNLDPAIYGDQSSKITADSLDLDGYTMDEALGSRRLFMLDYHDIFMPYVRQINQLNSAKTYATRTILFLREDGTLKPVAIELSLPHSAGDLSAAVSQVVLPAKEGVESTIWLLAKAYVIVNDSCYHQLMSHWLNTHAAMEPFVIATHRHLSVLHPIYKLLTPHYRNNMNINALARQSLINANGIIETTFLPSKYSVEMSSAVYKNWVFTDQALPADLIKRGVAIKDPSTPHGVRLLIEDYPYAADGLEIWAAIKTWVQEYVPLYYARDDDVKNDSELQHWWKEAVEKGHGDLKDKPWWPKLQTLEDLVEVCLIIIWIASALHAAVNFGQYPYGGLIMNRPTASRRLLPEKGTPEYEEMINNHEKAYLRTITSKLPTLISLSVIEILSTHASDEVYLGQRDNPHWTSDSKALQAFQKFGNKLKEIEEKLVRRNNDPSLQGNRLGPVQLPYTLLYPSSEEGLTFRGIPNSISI
Method: LA, enzyme and two assay solutions (A and B) were firstly prepared as follow:
LA solution: A mixture of LA (5.6 mg), ethanol (0.5 ml) and KOH (100 mM) to a final volume of 5 ml (6).
The enzyme solution was prepared by dissolving 1 mg lyophilized SLO (L1; Type I-B; EC 1, 13, 11, 12; Sigma Co.) in 5 ml phosphate buffer (50 mM, pH 7.0) and then its activity was checked by diene formation method at 234 nm. Finally, its activity was decreased to desired quantity by dilution with the phosphate buffer.
Solution A: DMAB (3-dimethylaminobenzoic acid) 50 mM in phosphate buffer (100 mM, pH 7.0).
Solution B: A mixture of MBTH (3-methyl-2-benzothiazolonhydrazone) (10 mM, 3 ml) and hemoglobin (5 mg/ml, 3 ml) in 25 ml phosphate buffer (50 mM, pH 5.0).
Assay procedure: the sample solution in dimethyl sulfoxide (25 µl), enzyme solution (4000 units/ml; 25 µl), and phosphate buffer (pH 7.0, 50 mM; 900 µl) were mixed in a test plate and pre-incubated for 5 min at room temperature. Control test was done using the same volume of dimethyl sulfoxide. After pre-incubation, LA solution (50 µl) was added (starting of the peroxidation reaction) and 10 min later, solution A (270 µl) and subsequently solution B (130 µl) were added to start the color formation. 3 min later, 200 µl of sodium dodecyl sulfate solution (2% W/V) was added to terminate the reaction. The absorbance was recorded at 598 nm. Each experiment was performed in triplicate. The data analysis was done in GraphPad Prism 6.0 ([6]).
Lipoxygenase inhibitory activity of the synthetic compounds (substrate: linoleic acid) was assessed by using the peroxide-formation method, according to the published literature ([14], [15]). In this method, measurement of linoleate hydroperoxide concentration is the basis of lipoxygenase activity determination. All the assessments were performed in comparison with 4-MMPB (4-methyl-2-(4-methylpiperazinyl)pyrimido[4,5-b]benzothiazine) as a well-known lipoxygenase inhibitor.

[2] = target: T2, soybean 15-lipoxygenase (SLO) (Glycine max, UniProt P08170); test: Inhibitory mechanism of SLO inhibition (Michaelis-Menten / Lineweaver-Burk); assay type: biochemical; settings: Tris buffer pH 7.2; LA 6.25-100 µM; inhibitor 125, 100 and 75 µM; Lineweaver-Burk plot
T2 construct: purchased Sigma Co
T2 sequence (P08170 1-839): T1 sequence (P08170 1-839)
Method: The experiment was done in Tris buffer (pH 7.2, 50 mM). Five concentrations of LA (6.25, 12.5, 25, 50 and 100 µM) were used. The enzyme activity was measured in the absence (control test) and presence of 6f as inhibitor (concentrations 125, 100, and 75 µM).
25 µl of the enzyme solution (4000 unit/ml) was added to mixture of buffer (900 µl) and inhibitor (25 µl) and incubated for 10 min at room temperature. Subsequently, 50 µl of LA solution was added to the mixture to start the reaction. After 10 min, solution A (270 µl) and then solution B (130 µl) were added to start color formation (preparation of solution A and B described in the previous section). 3 min later, 200 µl of a 2% SDS solution was added to terminate the reaction. The absorbance was recorded at 598 nm compared with the control. These experiments were performed in triplicate. Using the reaction rates (Abs.min^-1), both inhibitor and LA concentrations (µM), Michaelis-Menten and Lineweaver-Burk plots were graphed in GraphPad Prism 6.0.
So molecular docking by AutoDockTools could be responsible for finding the probable binding conformation of the inhibitors in active site pocket of SLO.

[3] = target: T1, soybean 15-lipoxygenase (SLO; L1; Type I-B; EC 1,13,11,12); settings: cited from earlier work
[4] = substrate linoleic acid, phosphate buffer pH 7.0, absorbance 598 nm, triplicate, read-out: IC50 (SLO inhibition)

| SMILES | IC50 [1, 4] | melting point | also measured |
| --- | --- | --- | --- |
| C=CCc1cc(NC(=O)C2CC2)ccc1OC(C)C [Compound 6a, N-(3-allyl-4-isopropoxyphenyl) cyclopropane carboxamide] | 45.5 ± 8.1 µM | 78 to 79 °C | – |
| C=CCc1cc(NC(=O)C2CCC2)ccc1OC(C)C [Compound 6b, N-(3-allyl-4-isopropoxyphenyl) cyclobutane carboxamide] | 25.2 ± 2.1 µM | 81 to 83 °C | – |
| C=CCc1cc(NC(=O)C2CCCC2)ccc1OC(C)C [Compound 6c, N-(3-allyl-4-isopropoxyphenyl) cyclopentane carboxamide] | 9.27 ± 1.9 µM | 88 to 89 °C | – |
| C=CCc1cc(NC(=O)C2CCCCC2)ccc1OC(C)C [Compound 6d, N-(3-allyl-4-isopropoxyphenyl) cyclohexane carboxamide] | 3.56 ± 0.21 µM | 93 to 95 °C | – |
| C=CCc1cc(NC(=O)c2ccccc2)ccc1OC(C)C [Compound 6e, N-(3-allyl-4-isopropoxyphenyl) benzamide] | > 100 µM | 128 to 130 °C | SLO inhibition, result in words ([1]; substrate linoleic acid): no effect; also recorded: did not show any activity |
| C=CCc1cc(NC(=O)C23CC4CC(CC(C4)C2)C3)ccc1OC(C)C [Compound 6f, N-(3-allyl-4-isopropoxyphenyl) adamantane carboxamide] | – | – | IC50 [1]: 1.35 ± 0.08 µM; Inhibitory mechanism on SLO [2]: competitive mechanism |
| C=CCOc1ccc(NC(=O)C23CC4CC(CC(C4)C2)C3)cc1CC=C [Compound A1, N-(3-allyl-4-(allyloxy)phenyl) adamantanecarboxamide] | – | – | IC50 ([3]; previous work on N-(3-allyl-4-(allyloxy)phenyl) carboxamides, read-out: IC50 (lipoxygenase inhibition) of A1): 9.8 ± 1.2 µM |
| C=CCc1cc(OC)ccc1OC(C)C [Compound A2, 2-allyl-1-isopropoxy-4-methoxybenzene] | – | – | IC50 ([3]; previous work on 2-alkoxy-5-methoxyallylbenzenes, read-out: IC50 (lipoxygenase inhibition) of A2): 5.9 ± 0.6 µM |
